Test results taken from patent US8901314B2, “Substituted pyrazoles as N-type calcium channel blockers” (Janssen Pharmaceutica NV, priority 2012, dated 2014).

Assays:
[1] = test system: Cav2.2 (N-type calcium channel; α1B, α2δ and β3 subunits stably expressed in HEK293 cells); test: Automated electrophysiology assay (QPatch-HT patch clamp); type: cell-based; conditions: 0.1 μM; for QPatch % Inhibition, High Freq: high frequency stimulation (15th pulse of 5 Hz train); for QPatch % Inhibition, Low Freq: low frequency stimulation (1st pulse of train)
How it was run: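 Whole-cell automated patch clamp of HEK293 cells stably expressing α1B, α2δ-1 and β3, with 10 mM Ba²⁺/TEA external solution and CsCl internal solution. From −80 mV, trains of 15 pulses to +20 mV at 5 Hz every 30 s. Pulse 1 and pulse 15 currents normalized to the no-compound control period, with CdCl2 used to zero the current.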

[2] = target: α1B (Cav2.2), β3 and α2δ subunits of the N-type calcium channel (stable HEK cell line) (Rattus norvegicus, UniProt Q02294); test: Calcium-dye indicator assay (FDSS, KCl depolarization); type: cell-based; conditions: calcium mobilization response to 50 mM KCl; six-point concentration-response
How it was run: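 HEK cells stably co-expressing α1B, β3 and α2δ subunits, loaded with calcium dye, exposed to compound for 5 min before 50 mM KCl depolarization, 3 min further read on FDSS. Maximal fluorescence normalized to KCl maximum and buffer minimum; IC50 by sigmoidal nonlinear regression.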

Row | IC50 [2] [nM] | SMILES | QPatch % Inhibition, High Freq [1] [%] | QPatch % Inhibition, Low Freq [1] [%]
1 | 5.3 | COc1ccccc1-n1nc(C2CC(C)(C)OC(C)(C)C2)cc1-c1cc(C)cs1 [Compound 18, 1-(2-Methoxyphenyl)-5-(4-methylthiophen-2-yl)-3-(2,2,6,6-tetramethyltetrahydro-2H-pyran-4-yl)-1H-pyrazole] | 16 | −23
2 | 5.5 | COc1cccc(-c2cc(C3CC(C)(C)OC(C)(C)C3)nn2-c2ccccc2OC)c1 [Compound 20, 1-(2-Methoxyphenyl)-5-(3-methoxyphenyl)-3-(2,2,6,6-tetramethyltetrahydro-2H-pyran-4-yl)-1H-pyrazole] | 45 | 38
3 | 6 | COc1ccccc1-n1nc(C2CC(C)(C)OC(C)(C)C2)cc1-c1ccccc1N [Compound 22, 2-[1-(2-Methoxyphenyl)-3-(2,2,6,6-tetramethyltetrahydro-2H-pyran-4-yl)-1H-pyrazol-5-yl]-aniline] | 0 | 0
4 | 12 | COc1ccccc1-n1nc(C2CC(C)(C)OC(C)(C)C2)cc1-c1cccs1 [Compound 26, 1-(2-Methoxyphenyl)-3-(2,2,6,6-tetramethyltetrahydro-2H-pyran-4-yl)-5-thiophen-2-yl-1H-pyrazole] | 42 | 24
5 | 17 | COc1ccccc1-n1nc(C2CC(C)(C)OC(C)(C)C2)cc1-c1ccc(C)o1 [Compound 28, 1-(2-Methoxyphenyl)-5-(5-methylfuran-2-yl)-3-(2,2,6,6-tetramethyltetrahydro-2H-pyran-4-yl)-1H-pyrazole] | −5 | −18
6 | 3.5 | COc1ccccc1-n1nc(C2CC(C)(C)OC(C)(C)C2)cc1-c1ccc(N(C)C)nc1 [Compound 31, 5-[1-(2-Methoxyphenyl)-3-(2,2,6,6-tetramethyltetrahydro-2H-pyran-4-yl)-1H-pyrazol-5-yl]-N,N-dimethylpyridin-2-amine] | 1 | 4
7 | 19 | COc1ccccc1-n1nc(C2CC(C)(C)OC(C)(C)C2)cc1-c1ccc(C(C)O)cc1 (stereo not drawn) [Compound 44, 1-{4-[1-(2-Methoxyphenyl)-3-(2,2,6,6-tetramethyltetrahydro-2H-pyran-4-yl)-1H-pyrazol-5-yl]-phenyl}-ethanol] | 6 | 20
8 | 5.5 | CN(C)c1ccccc1-n1nc(C2CC(C)(C)OC(C)(C)C2)cc1-c1ccc(Cl)cc1 [Compound 49, 2-[5-(4-Chlorophenyl)-3-(2,2,6,6-tetramethyltetrahydro-2H-pyran-4-yl)-1H-pyrazol-1-yl]-N,N-dimethylaniline] | 47 | 33
9 | 7 | CNc1ccccc1-n1nc(C2CC(C)(C)OC(C)(C)C2)cc1-c1ccc(Cl)cc1 [Compound 60, 2-[5-(4-Chlorophenyl)-3-(2,2,6,6-tetramethyltetrahydro-2H-pyran-4-yl)-1H-pyrazol-1-yl]-N-methylaniline] | 48 | 31
10 | 7.8 | CC1(C)CC(c2cc(-c3ccc(Cl)cc3)n(-c3ccccc3[N+](=O)[O-])n2)CC(C)(C)O1 [Compound 65, 5-(4-Chlorophenyl)-1-(2-nitrophenyl)-3-(2,2,6,6-tetramethyltetrahydro-2H-pyran-4-yl)-1H-pyrazole] | 50 | 44
11 | 9.4 | CCNc1ccccc1-n1nc(C2CC(C)(C)OC(C)(C)C2)cc1-c1ccc(Cl)cc1 [Compound 66, 2-[5-(4-Chlorophenyl)-3-(2,2,6,6-tetramethyltetrahydro-2H-pyran-4-yl)-1H-pyrazol-1-yl]-N-ethylaniline] | 25 | 7
12 | 20 | CC1(C)CC(c2cc(-c3ccc(Cl)cc3)n(-c3ccccc3N)n2)CC(C)(C)O1 [Compound 68, 2-[5-(4-Chlorophenyl)-3-(2,2,6,6-tetramethyltetrahydro-2H-pyran-4-yl)-1H-pyrazol-1-yl]aniline] | 14 | −9
13 | 24 | COc1ccccc1-n1nc(C2CC(C)(C)OC(C)(C)C2)c(Br)c1-c1ccc(Cl)cc1 [Compound 70, 4-Bromo-5-(4-chlorophenyl)-1-(2-methoxyphenyl)-3-(2,2,6,6-tetramethyltetrahydro-2H-pyran-4-yl)-1H-pyrazole] | 25 | 24
14 | 38 | COc1ccccc1-n1nc(C2CC(C)(C)OC(C)(C)C2)cc1-c1ccc(OCCN2CCOCC2)cc1 [Compound 72, 4-(2-{4-[1-(2-Methoxyphenyl)-3-(2,2,6,6-tetramethyltetrahydro-2H-pyran-4-yl)-1H-pyrazol-5-yl]phenoxy}ethyl)morpholine] | 11 | 4
15 | 80 | COc1ccc(-n2nc(C3CCOC(C)(C)C3)cc2-c2ccc(Cl)cc2)c(C)c1 (stereo not drawn) [Compound 75, 5-(4-Chlorophenyl)-3-(2,2-dimethyltetrahydro-2H-pyran-4-yl)-1-(4-methoxy-2-methylphenyl)-1H-pyrazole] | 67 | 45
16 | 5.1 | COc1ccccc1-n1nc(C2CC(C)(C)OC2(C)C)cc1-c1ccc(Cl)cc1 (stereo not drawn) [Compound 98, 5-(4-Chlorophenyl)-1-(2-methoxyphenyl)-3-(2,2,5,5-tetramethyltetrahydrofuran-3-yl)-1H-pyrazole] | 61 | 44.5

Row | SMILES | IC50 [2] [nM] | QPatch % Inhibition, High Freq [1] [%] | QPatch % Inhibition, Low Freq [1] [%]
17 | CCOc1ccc(-c2cc(C3CC(C)(C)OC(C)(C)C3)nn2-c2ccccc2OC)cn1 [Compound 19, 2-Ethoxy-5-[1-(2-methoxyphenyl)-3-(2,2,6,6-tetramethyltetrahydro-2H-pyran-4-yl)-1H-pyrazol-5-yl]-pyridine] | 5.4 | 21 | 10
18 | COc1ccccc1-n1nc(C2CC(C)(C)OC(C)(C)C2)cc1-c1ccc(C)nc1 [Compound 23, 5-[1-(2-Methoxyphenyl)-3-(2,2,6,6-tetramethyltetrahydro-2H-pyran-4-yl)-1H-pyrazol-5-yl]-2-methylpyridine] | 6.2 | −8 | −19
19 | COc1ccccc1-n1nc(C2CCOC(C)(C)C2)cc1-c1ccc(Cl)cc1 (stereo not drawn) [Compound 62, 5-(4-Chlorophenyl)-3-(2,2-dimethyltetrahydro-2H-pyran-4-yl)-1-(2-methoxyphenyl)-1H-pyrazole] | 2 | 67 | 45
20 | COc1ccccc1-n1nc([C@H]2C[C@@H](C)O[C@@H](C)C2)cc1-c1ccc(Cl)cc1 [Compound 63, 5-(4-Chlorophenyl)-3-[(2R,4r,6S)-2,6-dimethyltetrahydro-2H-pyran-4-yl]-1-(2-methoxyphenyl)-1H-pyrazole] | 2.5 | 74.5 | 60
21 | CCN(CC)c1ccccc1-n1nc(C2CC(C)(C)OC(C)(C)C2)cc1-c1ccc(Cl)cc1 [Compound 73, 2-[5-(4-Chlorophenyl)-3-(2,2,6,6-tetramethyltetrahydro-2H-pyran-4-yl)-1H-pyrazol-1-yl]-N,N-diethylaniline] | 50 | 1 | −18
22 | COc1ccccc1-n1nc(C2=CC(C)(C)OC(C)(C)C2)cc1-c1ccc(Cl)cc1 [Compound 95, 5-(4-Chlorophenyl)-1-(2-methoxyphenyl)-3-(2,2,6,6-tetramethyl-3,6-dihydro-2H-pyran-4-yl)-1H-pyrazole] | 3.4 | 26 | 14
